Assay results: the supplement of paper PMC8671470

Experiments:
Settings in all cases: 72 h
BV-173 [1] = system: BV-173
How it was run: (§1)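 The IC50 was derived from log-logistic dose–response fitting. Each of fifteen myeloid leukaemia cell lines, seeded in RPMI 1640 within its linear growth range, was exposed in 384-well plates to five tenfold doses (1 to 10,000 nM) in duplicate for 72 h at 37 °C and 5% CO2. Luminescent ATP viability readings were normalised to vehicle and to a positive control at 10 µM before four-parameter curve fitting.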

HEL = system: HEL
How it was run: as §1

HL-60 [2] = system: HL-60
How it was run: as §1

K-562 [3] = system: K-562
How it was run: as §1

KCL-22 [4] = system: KCL-22
How it was run: as §1

KG-1 [5] = system: KG-1
How it was run: as §1

KU-812 [6] = system: KU-812
How it was run: as §1

LAMA-84 [7] = system: LAMA-84
How it was run: as §1

ML-2 [8] = system: ML-2
How it was run: as §1

MOLM-13 [9] = system: MOLM-13
How it was run: as §1

MV4-11 [10] = system: MV4-11
How it was run: as §1

Mono-Mac-6 = system: Mono-Mac-6
How it was run: as §1

NOMO-1 [11] = system: NOMO-1
How it was run: as §1

SHI-1 = system: SHI-1
How it was run: as §1

THP-1 [12] = system: THP-1
How it was run: as §1

HL-60 [13] = experiment: cell viability (% survival relative to DMSO control); higher = less cytotoxic
How it was run: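 In 384-well plates, the full library was rescreened in duplicate on HL-60 cells in RPMI 1640 with 10% FBS, at 1–10,000 nM in five tenfold concentrations, for 72 h at 37 °C, 5% CO2. Each run also held DMSO or 100 nM of one of three metabolic inhibitors. Viability was measured by CellTiter-Glo and normalised to DMSO wells and to wells with proteasome inhibitor, present at 10 μM. Any area under the curve comes from four-parameter log-logistic fitting with drc and PharmacoGx.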

BV-173 [14] = experiment: cell viability (% survival relative to DMSO control, bortezomib = 0%); higher = less cytotoxic
How it was run: (§2)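 Fifteen myeloid leukaemia cell lines were exposed to compounds at 1, 10, 100, 1000 or 10000 nM in 384-well plates for 72 h at 37 °C and 5% CO2. Viability was read by CellTiter-Glo luminescence and normalised, with vehicle as 100% and a 10 µM positive control as 0%. Values are percent survival averaged over duplicates.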

HL-60 [15] = experiment: as above
How it was run: as §2

K-562 [16] = experiment: as above
How it was run: as §2

KCL-22 [17] = experiment: as above
How it was run: as §2

KG-1 [18] = experiment: as above
How it was run: as §2

KU-812 [19] = experiment: as above
How it was run: as §2

LAMA-84 [20] = experiment: as above
How it was run: as §2

ML-2 [21] = experiment: as above
How it was run: as §2

MOLM-13 [22] = experiment: as above
How it was run: as §2

MV4-11 [23] = experiment: as above
How it was run: as §2

NOMO-1 [24] = experiment: as above
How it was run: as §2

THP-1 [25] = experiment: as above
How it was run: as §2

O=C(O)C(=O)CBr [3-bromopyruvic acid]
Settings	IC50 (cell viability) [µM]
BV-173 [1]	> 10
HEL	> 10
HL-60 [2]	> 10
K-562 [3]	> 10
KCL-22 [4]	> 10
KG-1 [5]	> 10
KU-812 [6]	> 10
LAMA-84 [7]	> 10
ML-2 [8]	> 10
MOLM-13 [9]	> 10
MV4-11 [10]	> 10
Mono-Mac-6	> 10
NOMO-1 [11]	> 10
SHI-1	> 10
THP-1 [12]	> 10

cell viability [%], HL-60 [13]
Settings	0.001 µM	0.01 µM	0.1 µM	1 µM	10 µM
co-treatment: AZD3965 100 nM	99.1	101	99.2	98.3	95.8
co-treatment: DMSO vehicle	99.1	99.308	97.7	99.6	98
co-treatment: GSK2194069 100 nM	97.451	96.2	98.9	103	98.5
co-treatment: pictilisib 100 nM	112	93.8	92.943	97.2	96.5

cell viability [%]
Settings	1 nM	10 nM	100 nM	1000 nM	10000 nM
BV-173 [14]	107	85.9	99	91.7	99.7
HL-60 [15]	89.4	109	103	87.3	167
K-562 [16]	91.3	97.6	92.3	103	106
KCL-22 [17]	99.6	75.3	91.7	93.1	106
KG-1 [18]	94.9	93.3	111	96	106
KU-812 [19]	88	88.9	99.8	97.6	105
LAMA-84 [20]	90.8	101	99.5	99.4	98
ML-2 [21]	91	78.4	102	102	99.4
MOLM-13 [22]	95	97.4	89.2	93.8	122
MV4-11 [23]	93.7	94.7	88.4	101	99.8
NOMO-1 [24]	93.3	95	101	98.1	98
THP-1 [25]	106	85	105	93.4	107

NS(=O)(=O)c1ccc([N+](=O)[O-])cc1 [4-Nitrobenzenesulfonamide]
Settings	IC50 (cell viability) [µM]
BV-173 [1]	> 10
HEL	> 10
HL-60 [2]	> 10
K-562 [3]	> 10
KCL-22 [4]	> 10
KG-1 [5]	> 10
KU-812 [6]	> 10
LAMA-84 [7]	> 10
ML-2 [8]	> 10
MOLM-13 [9]	> 10
MV4-11 [10]	> 10
Mono-Mac-6	> 10
NOMO-1 [11]	> 10
SHI-1	> 10
THP-1 [12]	> 10

cell viability [%], HL-60 [13]
Settings	0.001 µM	0.01 µM	0.1 µM	1 µM	10 µM
co-treatment: AZD3965 100 nM	91.2	100.8	103	97.7	90.6
co-treatment: DMSO vehicle	92.3	96.5	104	104	100
co-treatment: GSK2194069 100 nM	96.7	96.8	100.73	102	98.17
co-treatment: pictilisib 100 nM	105	98.6	101	99.4	91.7

cell viability [%]
Settings	1 nM	10 nM	100 nM	1000 nM	10000 nM
BV-173 [14]	101	95	105	97.8	86.1
HL-60 [15]	106	111	110	99.8	108
K-562 [16]	103	105	97.1	94.8	100
KCL-22 [17]	103	101	103	93.1	91.1
KG-1 [18]	107	101	92.4	96.1	92.3
KU-812 [19]	102	95.7	105	98.1	93
LAMA-84 [20]	99.5	95.1	103	95.4	98.6
ML-2 [21]	103	111	97.3	102	89.6
MOLM-13 [22]	91.3	92.3	95.4	110	107
MV4-11 [23]	102	93.4	115	94.3	114
NOMO-1 [24]	101	105	98.5	103	98.3
THP-1 [25]	111	101	100	104	90.7

Cc1ccccc1C(C(=O)NC1CCCCC1)N(C(=O)Cn1ccnc1C)c1cccc(F)c1 (stereo not given) [AGI-5198]
Settings	IC50 (cell viability) [µM]
BV-173 [1]	> 10
HEL	> 10
HL-60 [2]	> 10
K-562 [3]	> 10
KCL-22 [4]	> 10
KG-1 [5]	> 10
KU-812 [6]	> 10
LAMA-84 [7]	> 10
ML-2 [8]	> 10
MOLM-13 [9]	> 10
MV4-11 [10]	> 10
Mono-Mac-6	> 10
NOMO-1 [11]	> 10
SHI-1	> 10
THP-1 [12]	> 10

cell viability [%], HL-60 [13]
Settings	0.001 µM	0.01 µM	0.1 µM	1 µM	10 µM
co-treatment: AZD3965 100 nM	95.1	98.5	93.2	91.8	100.5
co-treatment: DMSO vehicle	98.5	106	104	99.4	95.7
co-treatment: GSK2194069 100 nM	103	101	88.5	101	106
co-treatment: pictilisib 100 nM	98.4	114	103	102	104

cell viability [%]
Settings	1 nM	10 nM	100 nM	1000 nM	10000 nM
BV-173 [14]	88.3	103	107	104	95.2
HL-60 [15]	107	106	99.5	102	116
K-562 [16]	98.5	101	103	96.5	104
KCL-22 [17]	101	114	132	111	104
KG-1 [18]	102	100	128	94.9	94.5
KU-812 [19]	97.7	105	109	92.1	103
LAMA-84 [20]	97.6	104	115	97.2	99.9
ML-2 [21]	96.8	106	122	103	95.1
MOLM-13 [22]	87	124	108	80	118
MV4-11 [23]	94	102	91.5	91.4	115
NOMO-1 [24]	96	103	107	100	102
THP-1 [25]	96.9	100	107	101	100

CC(C)(C#N)c1cc(Cn2cncn2)cc(C(C)(C)C#N)c1 [Anastrozole]
Settings	IC50 (cell viability) [µM]
BV-173 [1]	> 10
HEL	> 10
HL-60 [2]	> 10
K-562 [3]	> 10
KCL-22 [4]	> 10
KG-1 [5]	> 10
KU-812 [6]	> 10
LAMA-84 [7]	> 10
ML-2 [8]	> 10
MOLM-13 [9]	> 10
MV4-11 [10]	> 10
Mono-Mac-6	> 10
NOMO-1 [11]	> 10
SHI-1	> 10
THP-1 [12]	> 10

cell viability [%], HL-60 [13]
Settings	0.001 µM	0.01 µM	0.1 µM	1 µM	10 µM
co-treatment: AZD3965 100 nM	97.5	101.3	102	102	100
co-treatment: DMSO vehicle	101	100	101	101.7	102
co-treatment: GSK2194069 100 nM	96.7	94.4	120	102	100
co-treatment: pictilisib 100 nM	104	92.3	106	108	101

cell viability [%]
Settings	1 nM	10 nM	100 nM	1000 nM	10000 nM
BV-173 [14]	104	89.4	104	95.9	104
HL-60 [15]	103	99.7	89.3	93.8	91.6
K-562 [16]	109	95.3	106	93.2	92.1
KCL-22 [17]	102	91.6	111	91.7	102
KG-1 [18]	98.4	97.2	103	92	93.8
KU-812 [19]	86.1	90.6	100	90.5	90
LAMA-84 [20]	93.5	97.6	96.3	99.9	97.7
ML-2 [21]	106	100	106	90.5	93
MOLM-13 [22]	97.4	90.8	88.2	104	103
MV4-11 [23]	116	99.4	92.9	87.8	96.4
NOMO-1 [24]	90.6	103	96.4	99.6	102
THP-1 [25]	102	93.4	99.8	99.9	96.3

O=C(O)C1=CC(=C(c2ccc(O)c(C(=O)O)c2)c2ccc(O)c(C(=O)O)c2)C=CC1=O [Aurintricarboxylic acid]
Settings	IC50 (cell viability) [µM]
BV-173 [1]	2.72
HEL	3.3
HL-60 [2]	> 10
K-562 [3]	> 10
KCL-22 [4]	> 10
KG-1 [5]	> 10
KU-812 [6]	> 10
LAMA-84 [7]	> 10
ML-2 [8]	> 10
MOLM-13 [9]	2.64
MV4-11 [10]	> 10
Mono-Mac-6	> 10
NOMO-1 [11]	> 10
SHI-1	> 10
THP-1 [12]	> 10

cell viability [%], HL-60 [13]
Settings	0.001 µM	0.01 µM	0.1 µM	1 µM	10 µM
co-treatment: AZD3965 100 nM	95.9	101	101	94.5	98.9
co-treatment: DMSO vehicle	101	81.6	106	104	97.6
co-treatment: GSK2194069 100 nM	94.1	82.3	98.7	98.3	82.5
co-treatment: pictilisib 100 nM	99.3	99.3	96.2	101	103

cell viability [%]
Settings	1 nM	10 nM	100 nM	1000 nM	10000 nM
BV-173 [14]	114	104	107	88.3	9.49
HL-60 [15]	103	87.8	103	91.1	111
K-562 [16]	88.9	104	82	101	128
KCL-22 [17]	131	94.8	92	116	119
KG-1 [18]	104	94.5	99.9	89.6	78.9
KU-812 [19]	98	102	106	96	102
LAMA-84 [20]	105	102	100	89	106
ML-2 [21]	107	97.7	97.5	96.4	92.9
MOLM-13 [22]	91.3	101	107	82.8	30.9
MV4-11 [23]	103	100	86.3	97	71.9
NOMO-1 [24]	95.8	108	109	90.1	80.9
THP-1 [25]	105	101	109	97.5	99.4
